Reference: article PMC10762035, “Molecular basis of human trace amine-associated receptor 1 activation” (Nature Communications, 2024)
Changes are numbered by the printed parent chain. Several values for one entry are separate records, joined by “and”; a condition that tells them apart may be missing. Equal values may be shown once.

Experiments:
Assay type in all cases: cell-based
hTA1 C88/178S = target: T1, hTA1 C88/178S (Homo sapiens, UniProt Q96RJ0, C178S/C88S); test: GloSensor cAMP accumulation assay, C88S/C178S double mutant; settings: for Normalized Luminescence Counts (N=2): log[Compound], single replicate values
T1 construct: expressed in transfected cells; host or cells: HEK293T
T1 sequence (Q96RJ0 1-339 C88S/C178S): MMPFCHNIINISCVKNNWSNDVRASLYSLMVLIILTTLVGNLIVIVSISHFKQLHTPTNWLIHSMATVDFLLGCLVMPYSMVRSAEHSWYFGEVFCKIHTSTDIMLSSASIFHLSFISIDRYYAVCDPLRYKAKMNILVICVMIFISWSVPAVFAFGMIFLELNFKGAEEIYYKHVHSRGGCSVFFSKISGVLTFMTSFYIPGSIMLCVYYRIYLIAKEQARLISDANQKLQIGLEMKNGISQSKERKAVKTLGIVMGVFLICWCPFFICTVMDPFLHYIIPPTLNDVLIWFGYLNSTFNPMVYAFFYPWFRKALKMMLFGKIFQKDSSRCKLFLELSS

hTA1 C88S = target: T2, hTA1 C88S (Homo sapiens, UniProt Q96RJ0, C88S); test: GloSensor cAMP accumulation assay, C88S mutant; settings: C88S
T2 construct: expressed in transfected cells; host or cells: HEK293T
T2 sequence (Q96RJ0 1-339 C88S): T1 sequence (Q96RJ0 1-339 C88S/C178S) with S178C

hTA1 T271A = target: T3, hTA1 T271A (Homo sapiens, UniProt Q96RJ0, T271A); test: GloSensor cAMP accumulation assay, T271A mutant
T3 construct: expressed in transfected cells; host or cells: HEK293T
T3 sequence (Q96RJ0 1-339 T271A): T1 sequence (Q96RJ0 1-339 C88S/C178S) with S88C, S178C, T271A

hTA1 = target: T4, hTA1 (Homo sapiens, UniProt Q96RJ0); test: GloSensor cAMP accumulation assay, concentration response, wild-type hTA1 in transfected HEK293T cells; settings: for Dose-response curves for asenapine vs endogenous trace amines: log[Compound], replicate values (N=2);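 on all read-outs here: luminescence read after 30 min compound exposure at room temperature in cells preloaded with D-Luciferin, reflecting Gs-driven cAMP rise, efficacy scaled to the maximal β-PEA response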
T4 construct: expressed in transfected cells; host or cells: HEK293T
T4 sequence (Q96RJ0 1-339): T1 sequence (Q96RJ0 1-339 C88S/C178S) with S88C, S178C

[1] = C88S, C178S, each row is one independent experiment, 3 replicates

With NCCc1ccc(Oc2ccc(O)cc2)c(I)c1 [T1AM, 3-iodothyronamine] the “Span ± SEM (Emax normalized to β-PEA)” value (hTA1 C88/178S; C88/178S, n=2) was 98.9 ± 13.16, the “pEC50 ± SEM” value (hTA1 C88/178S; C88/178S, n=2) was 5.96 ± 0.05 and the EC50 (hTA1 C88/178S; C88/178S, n=2, read-out: EC50) was 1090 nM. For the same molecule, the “pEC50 values, Mean” value (hTA1 C88/178S; [1]) was 6.084 and 5.841, the “ΔEmax values (each mutant value - WT average), Mean” value (hTA1 C88/178S; [1]) was 15.2915 and 41.6133 and the “ΔpEC50 values (each mutant value - WT average), Mean” value (hTA1 C88/178S; [1]) was -0.04547 and -0.2881. For the same molecule, the “Normalized Luminescence Counts (N=2)” value (hTA1 C88/178S; C88S, C178S, M = -5) was 73.2176 and 97.3588 and 72.5957 and 103.925 and 90.4821 and 104.378, the “Normalized Luminescence Counts (N=2)” value (hTA1 C88/178S; C88S, C178S, M = -5.522) was 67.1681 and 64.6805 and 64.737 and 67.222 and 55.8941 and 86.253 and the “Normalized Luminescence Counts (N=2)” value (hTA1 C88/178S; C88S, C178S, M = -6) was 53.4297 and 44.4403 and 51.5074 and 51.9671 and 38.3735 and 50.6077. For the same molecule, the “Normalized Luminescence Counts (N=2)” value (hTA1 C88/178S; C88S, C178S, M = -6.522) was 23.5782 and 23.1825 and 20.8079 and 20.0978 and 14.6604 and 27.0456, the “Normalized Luminescence Counts (N=2)” value (hTA1 C88/178S; C88S, C178S, M = -7) was 11.3097 and 9.048 and 12.1012 and 6.655 and 6.504 and 10.7333 and the “Normalized Luminescence Counts (N=2)” value (hTA1 C88/178S; C88S, C178S, M = -7.522) was 2.433 and 2.8292 and 3.225 and 0.6137 and -1.652 and -0.1415. For the same molecule, the “Normalized Luminescence Counts (N=2)” value (hTA1 C88/178S; C88S, C178S, M = -8) was 0.6808 and 0.7373 and 1.19 and -0.1415 and -0.2925 and 0.9158, the “Normalized Luminescence Counts (N=2)” value (hTA1 C88/178S; C88S, C178S, M = -8.522) was 0.7373 and 0.7939 and 0.285 and -1.501 and 0.1606 and -0.4436 and the “Normalized Luminescence Counts (N=2)” value (hTA1 C88/178S; C88S, C178S, M = -9) was 0.4547 (2×) and 1.981 and -1.199 and -2.558 and -1.652. For the same molecule, the “Normalized Luminescence Counts (N=2)” value (hTA1 C88/178S; C88S, C178S, M = -9.522) was 0.285 (2×) and 0.2285 and -0.4436 and -2.105 and -1.199, the “Normalized Luminescence Counts (N=2)” value (hTA1 C88/178S; C88S, C178S, M = -10) was 1.19 and 0.0589 and 2.2073 and 0.4627 and 0.3116 and -0.1415 and the “Normalized Luminescence Counts (N=2)” value (hTA1 C88/178S; C88S, C178S, M = -10.522) was 1.077 and 0.285 and 1.1331 and 0.1606 and -2.86 and -1.652. The “Normalized Luminescence Counts (N=2)” value (hTA1 C88/178S; C88S, C178S, M = -11) was 1.529 and 0.9635 and 0.2285 and -1.048 and -1.35 and -1.652, the “Normalized Luminescence Counts (N=2)” value (hTA1 C88/178S; C88S, C178S, M = -11.522) was 1.19 and 1.246 and 0.4547 and -0.5946 and -1.199 (2×) and the “Normalized Luminescence Counts (N=2)” value (hTA1 C88/178S; C88S, C178S, M = -12) was 0.3981 and 0.172 and 1.981 and -1.501 and -1.048 and -0.2925. For the same molecule, the “Normalized Luminescence Counts (N=2)” value (hTA1 C88/178S; C88S, C178S, M = -12.522) was 1.1331 and 2.773 and 1.19 and -0.1415 and -1.35 and -0.8967, the “Emax values, Mean” value (hTA1 C88/178S; C88S, C178S, normalized (β-PEA = 100), each row is one independent experiment, 3 replicates) was 85.7378 and 112.06 and the Emax values (hTA1 C88S; Mean of fit per experiment) was 51.5909 and 77.2309. For the same molecule, the pEC50 values (hTA1 C88S; Mean of fit per experiment) was 6.196 and 6.127, the “Span ± SEM (Emax normalized to β-PEA)” value (hTA1 C88S; n=2) was 64.41 and the “pEC50 ± SEM” value (hTA1 C88S; n=2) was 6.16 ± 0.04. For the same molecule, the EC50 (hTA1 C88S; n=2, read-out: EC50) was 690 nM, the “ΔpEC50 values (each mutant value - WT average), Mean” value (hTA1 T271A; T271A mutant minus WT average, Figure 5B) was -0.6347 and -0.7159 and the “pEC50 values, Mean” value (hTA1 T271A; T271A mutant, Figure 5B, each row one independent experiment (3 replicates)) was 5.495 and 5.413. For the same molecule, the “Emax values, Mean” value (hTA1 T271A; T271A mutant, Figure 5B, β-PEA = 100, each row one independent experiment (3 replicates)) was 41.9229 and 94.6558, the “Span ± SEM (Emax normalized to β-PEA)” value (hTA1 T271A; T271A, n=2) was 68.29 and the “pEC50 ± SEM” value (hTA1 T271A; T271A, n=2) was 5.45 ± 0.03. For the same molecule, the EC50 (hTA1 T271A; T271A, n=2, read-out: EC50) was 3520 nM, the “pEC50 values, Avg” value (hTA1; WT hTA1, average of the two experiments, Figure 2B source data) was 6.129 and the “pEC50 values, Mean” value (hTA1; WT hTA1, each line an independent experiment, 3 replicates, Figure 2B source data) was 6.182 and 6.077. The “Emax values, Avg” value (hTA1; WT hTA1, β-PEA = 100, average of the two experiments) was 70.45, the “Emax values, Mean” value (hTA1; WT hTA1, β-PEA = 100, each line an independent experiment, 3 replicates) was 81.6192 and 59.2734 and the “Emax values, Avg” value (hTA1; WT, average of the experiments, β-PEA = 100) was 70.45. For the same molecule, the “Emax values, Avg” value (hTA1; WT, average of the two experiments) was 70.45, the “Emax values, Mean” value (hTA1; WT, mean of each independent experiment (3 replicates), β-PEA = 100) was 81.6192 and 59.2734 and the “Emax values, Mean” value (hTA1; WT, single experiments (3 replicates each), β-PEA = 100) was 81.6192 and 59.2734. The “Dose-response curves for asenapine vs endogenous trace amines” value (hTA1; M = -5) was 80.3892 and 70.8419 and 77.0287 and 53.9778 and 58.2977 and 47.0284, the “Dose-response curves for asenapine vs endogenous trace amines” value (hTA1; M = -5.522) was 67.6372 and 58.4905 and 72.8448 and 53.4613 and 47.5449 and 34.1625 and the “Dose-response curves for asenapine vs endogenous trace amines” value (hTA1; M = -6) was 47.6524 and 43.0457 and 45.9165 and 36.4633 and 32.8477 and 25.2879. For the same molecule, the “Dose-response curves for asenapine vs endogenous trace amines” value (hTA1; M = -6.522) was 27.5341 and 25.2641 and 26.1988 and 18.1976 and 14.2064 and 10.9195, the “Dose-response curves for asenapine vs endogenous trace amines” value (hTA1; M = -7) was 12.6456 and 9.641 and 11.7554 and 4.346 and 3.125 and 2.796 and the “Dose-response curves for asenapine vs endogenous trace amines” value (hTA1; M = -7.522) was 2.609 and 0.272 and 1.897 and 0.1666 and -0.02121 and -0.8664. The “Dose-response curves for asenapine vs endogenous trace amines” value (hTA1; M = -8) was 1.34 and 0.4055 and 0.9619 and 0.2136 and -0.06817 and -0.9603, the “Dose-response curves for asenapine vs endogenous trace amines” value (hTA1; M = -8.522) was -0.9075 and -0.6182 and -0.5737 and -1.007 and 0.1197 and -2.04 and the “Dose-response curves for asenapine vs endogenous trace amines” value (hTA1; M = -9) was -0.9521 and -0.863 and -1.419 and -0.8664 and -0.8195 and -1.618. For the same molecule, the “Dose-response curves for asenapine vs endogenous trace amines” value (hTA1; M = -9.522) was -1.019 and -2.087 and -1.442 and -1.383 and -0.8195 and -2.228, the “Dose-response curves for asenapine vs endogenous trace amines” value (hTA1; M = -10) was -0.863 (2×) and -1.286 and -1.477 and -1.054 and -1.571 and the “Dose-response curves for asenapine vs endogenous trace amines” value (hTA1; M = -10.522) was -1.531 and -2.287 and -1.464 and -1.571 and -1.336 and -1.618. The “Dose-response curves for asenapine vs endogenous trace amines” value (hTA1; M = -11) was -0.1731 and -0.9075 and -0.3734 and -0.5847 and 0.1197 and -1.054, the “Dose-response curves for asenapine vs endogenous trace amines” value (hTA1; M = -11.522) was -0.507 and -1.152 and -1.197 and -0.209 and -0.1151 and -1.054 and the “Dose-response curves for asenapine vs endogenous trace amines” value (hTA1; M = -12) was -0.774 and -1.419 and -1.8645 and -1.336 (2×) and -1.571. For the same molecule, the “Dose-response curves for asenapine vs endogenous trace amines” value (hTA1; M = -12.522) was -1.019 and -1.798 (2×) and -0.7255 and -1.43 and -2.087, the “pEC50 ± SEM” value (hTA1; wt hTA1, HEK293T, n=3) was 6.13 ± 0.04 and the EC50 (hTA1; wt hTA1, HEK293T, n=3, read-out: EC50) was 743 nM. For the same molecule, the Emax (hTA1; wt hTA1, relative to β-PEA) was 70.5%.
